Reference: patent publication US10597414B2, “Crystalline polymorphic form of 3-hydroxy-4,5-bis-benzyloxy-6-benzyloxymethyl-2-phenyl-2-OXO-2λ5-[1,2]oxaphosphinane” (PHOST'IN, priority 2016, dated 2020)

Tests used:
[1] = Compression test followed by X-ray diffraction; format: physicochemical; conditions: pressure of 10 tons for 5 min, 13 mm die
Description: Compression Test The sample was introduced into a die with 13 mm diameter (m=103.83 mg). The sample was then compressed with a hydraulic press at a pressure of 10 tons for 5 minutes, and immediately analyzed by X-ray diffraction.

[2] = Stability of polymorphic forms (maturation at room temperature, cross-seeding tests); format: physicochemical; conditions: 25° C., several days of maturation
Description: Other polymorphic forms could be obtained by recrystallizing out from specific organic solvents starting from the crystalline form of the invention. However, said other polymorphic forms are not stable after several days of maturation at room temperature (more specifically at 25° C.).

[3] = Thermogravimetric analysis (TGA); format: physicochemical; conditions: about 25° C. to 250° C., before and after melting
Description: The analyses were performed on a Perkin Elmer Pyris 1 TGA. The samples (few milligrams of product obtained by carrying out the above scheme 5) were placed in an aluminum pan and the cover was crimped. Analyses were performed under nitrogen purge (20 mL/min) and the cover was punctured at the beginning of the analysis.
Temperature scans were carried out between 25° C. and 300° C. at a speed of 10°/min (unless stated otherwise).

[4] = Dynamic vapor sorption (DVS) analysis; format: physicochemical
Description: Dynamic Vapor Sorption (DVS)
The analyses were performed on a Surface Measurements System DVS Intrinsic. The samples (few milligrams of product obtained by carrying out the above scheme 5) were placed in an open aluminum pan. Analyses were performed at 25° C.
Relative humidity was scanned between 0% RH and 95% RH with 10% RH steps (40-0-95-0-95; unless stated otherwise). The stability criterion was a variation in mass lower than 0.002% on a 5 min. window (with a minimum step time of 10 min and a maximum of 100 min).

glioblastoma = conditions: prior art, J. Med. Chem. 2012, 55, 2196-2211; cited from earlier work

Compound: O=P1(c2ccccc2)OC(COCc2ccccc2)C(OCc2ccccc2)C(OCc2ccccc2)C1O (centres unmarked) [crystalline form of compound I, 3-Hydroxy-4,5-bis-benzyloxy-6-benzyloxymethyl-2-phenyl-2-oxo-2λ5-[1,2]oxaphosphinane]
- Solid state stability after compression (diffraction pattern vs starting material) [1]: same peaks
- Relative stability of polymorphic form [2]: most stable form
- Weight loss by TGA [3]: no significant weight loss
- Hygroscopicity ([4]; DVS, 0% RH to 95% RH, 25° C.): non-hygroscopic
- DVS weight loss ([4]; drying steps, 25° C., relative humidity 0% RH to 95% RH): lower than 0.1%
- XRPD pattern after DVS analysis compared with before ([4]; sample kept at 95% RH on the final step): same profile
- DVS weight gain with respect to the initial weight ([4]; steps at higher relative humidity conditions, 25° C.): 0.1%

Compound: O=[P@@]1(c2ccccc2)O[C@H](COCc2ccccc2)[C@@H](OCc2ccccc2)[C@H](OCc2ccccc2)[C@H]1O [PST3.1a]
- Relative potency among the four diastereoisomers (glioblastoma): most potent diastereoisomer
